Measurements reported in patent EP0338372A2, “Solubilized pro-drugs” (AMERICAN CYANAMID COMPANY, priority 1988, dated 1989).
Like-named read-outs stand apart in the source and are kept apart here.

Experiments:
[1] = solubility; conditions: 0.1 M phosphate buffer, pH 7.5
[2] = pH 7.5
[3] = tested on: lymphocytic leukemia P388; experiment: Lymphocytic leukemia P388 test; format: in vivo, BDF1 mice
[4] = tested on: melanotic melanoma B16; experiment: Melanotic Melanoma B16 test; format: in vivo, BDF1 mice
[5] = tested on: L1210 leukemia cells; experiment: Lymphocytic Leukemia L1210 test; format: in vivo, BDF1 mice
[6] = Dose 6.25 mg/kg intraperitoneally on days 1, 5 and 9
[7] = Dose 12.5 mg/kg intraperitoneally on days 1, 5 and 9
[8] = Dose 25 mg/kg intraperitoneally on days 1, 5 and 9
[9] = Dose 50 mg/kg intraperitoneally on days 1, 5 and 9
[10] = Dose 100 mg/kg intraperitoneally on days 1, 5 and 9
[11] = Dose 200 mg/kg intraperitoneally on days 1, 5 and 9
[12] = Dose 0.19 mg/kg intraperitoneally on days 1, 5 and 9
[13] = Dose 0.39 mg/kg intraperitoneally on days 1, 5 and 9
[14] = Dose 0.78 mg/kg intraperitoneally on days 1, 5 and 9
[15] = Dose 1.56 mg/kg intraperitoneally on days 1, 5 and 9
[16] = Dose 3.12 mg/kg intraperitoneally on days 1, 5 and 9
[17] = Dose 3.25 mg/kg intraperitoneally on days 1, 5 and 9

With `O=C(O)c1cn(C2CC2)c2cc(N3CCN(P(=O)(O)O)CC3)c(F)cc2c1=O` [Example 47, t-Cyclopropyl-6-fluoro-1,4-dihydro-4-oxo-7-(4-phosphono-1-piperazinyl)-3-quinolinecarboxylic Acid] as the compound, how does the solubility [1] read?
The solubility was “soluble”.

For `CCOP(=O)(OCC)N1CCN(c2cc3c(cc2F)c(=O)c(C(=O)OCCOC)cn3C2CC2)CC1` [Example 49, 1-Cycfopropyl-7-[4-(diethoxyphosphinyl)-1-piperazinyl]-6-fluoro-1,4-dihydro-4-oxo-3-quinolinecarboxylic Acid, 2-Methoxyethyl Ester], which solubility [2] is on record?
The solubility was “easily soluble”.

With `CC(=O)N1CCN=C1N(N=Cc1c2ccccc2c(C=NN(C(C)=O)C2=NCCN2)c2ccccc12)C(C)=O` [2-[[10-[[Acetyl(1-acetyl-4,5-dihydro-1H-imidazol-2-yl)hydrazono]methyl]-9-anthracenyl]methylene]-1-(4,5-dihydro-1H-imidazol-2-yl)hydrazide of Acetic Acid] as the compound, how does the “Median Survival” value [3, 6] read?
The value was 12.5 days.

What about the “T/C x 100 %” value [3, 6] of the same compound?
Its value is 125%.

What about the “Median Survival” value [3, 7] of the same compound?
The value was 13 days.

What about the “T/C x 100 %” value [3, 7] of the same compound?
The value was 130%.

And the “Median Survival” value [3, 8]?
The value was 15.5 days.

And the “T/C x 100 %” value [3, 8]?
The value was 155%.

What about the “Median Survival” value [3, 9] of the same compound?
The value was 16.5 days.

And the “T/C x 100 %” value [3, 9]?
Its value is 165%.

And the “Median Survival” value [3, 10]?
Its value is 17 days.

What about the “T/C x 100 %” value [3, 10] of the same compound?
The value was 170%.

What about the “Median Survival” value [3, 11] of the same compound?
The value was 17.5 days.

What about the “T/C x 100 %” value [3, 11] of the same compound?
The value was 175%.

What about the “Median Survival” value [4, 7] of the same compound?
The value was 28 days.

And the “T/C x 100 %” value [4, 7]?
The value was 127%.

And the “Median Survival” value [4, 8]?
Its value is 30 days.

What about the “T/C x 100 %” value [4, 8] of the same compound?
The value was 136%.

What about the “Median Survival” value [4, 9] of the same compound?
Its value is 29.5 days.

What about the “T/C x 100 %” value [4, 9] of the same compound?
The value was 134%.

What about the “Median Survival” value [4, 10] of the same compound?
Its value is 37 days.

And the “T/C x 100 %” value [4, 10]?
The value was 168%.

What about the “Median Survival” value [4, 11] of the same compound?
The value was 40 days.

And the “T/C x 100 %” value [4, 11]?
The value was 182%.

With `O=C(O)CCC(=O)N1CCN=C1NN=Cc1c2ccccc2c(C=NNC2=NCCN2C(=O)CCC(=O)O)c2ccccc12` [2,2[9,10-Anthracenediylbis(methylidene-1-hydrazinyl-2-ylidene)]bis[4,5-dihydro-gamma-oxo-1H-imidazole-1-butanoic Acid]] as the compound, how does the “Median Survival” value [3, 12] read?
Its value is 15 days.

What about the “T/C x 100 %” value [3, 12] of the same compound?
Its value is 150%.

And the “Median Survival” value [3, 13]?
Its value is 15.5 days.

What about the “T/C x 100 %” value [3, 13] of the same compound?
Its value is 155%.

What about the “Median Survival” value [3, 14] of the same compound?
The value was 17 days.

And the “T/C x 100 %” value [3, 14]?
The value was 170%.

What about the “Median Survival” value [3, 15] of the same compound?
The value was 17 days.

What about the “T/C x 100 %” value [3, 15] of the same compound?
Its value is 170%.

And the “Median Survival” value [3, 16]?
The value was 19 days.

What about the “T/C x 100 %” value [3, 16] of the same compound?
The value was 190%.

And the “Median Survival” value [3, 6]?
The value was 19 days.

And the “T/C x 100 %” value [3, 6]?
The value was 190%.

And the “Median Survival” value [3, 7]?
Its value is 23 days.

What about the “T/C x 100 %” value [3, 7] of the same compound?
Its value is 230%.

What about the “Median Survival” value [4, 17] of the same compound?
The value was >60 days.

What about the “T/C x 100 %” value [4, 17] of the same compound?
Its value is >273%.

What about the “Median Survival” value [4, 6] of the same compound?
Its value is >60 days.

And the “T/C x 100 %” value [4, 6]?
Its value is >273%.

And the “Median Survival” value [4, 7]?
Its value is 55.5 days.

And the “T/C x 100 %” value [4, 7]?
The value was 252%.

And the “Median Survival” value [5, 13]?
Its value is 11.5 days.

What about the “T/C x 100 %” value [5, 13] of the same compound?
The value was 135%.

What about the “Median Survival” value [5, 14] of the same compound?
The value was 11.2 days.

And the “T/C x 100 %” value [5, 14]?
Its value is 132%.

And the “Median Survival” value [5, 15]?
The value was 12 days.

What about the “T/C x 100 %” value [5, 15] of the same compound?
Its value is 141%.

And the “Median Survival” value [5, 16]?
Its value is 12.3 days.

And the “T/C x 100 %” value [5, 16]?
Its value is 145%.

And the “Median Survival” value [5, 6]?
The value was 12.2 days.

And the “T/C x 100 %” value [5, 6]?
Its value is 144%.

And the “Median Survival” value [5, 7]?
Its value is 13.2 days.

What about the “T/C x 100 %” value [5, 7] of the same compound?
The value was 155%.
